Values quoted from earlier work, collected in publication PMC6467724 (Journal of medicinal chemistry, 2018).

Experiments:
[1] = mice, 40 mg/kg oral dose; cited from earlier work
[2] = cited from earlier work

CC[C@@H]([C@H](C)O)n1ncn(-c2ccc(N3CCN(c4ccc(OC[C@@H]5CO[C@@](Cn6cncn6)(c6ccc(F)cc6F)C5)cc4)CC3)cc2)c1=O [posaconazole]
Maximal reported plasma concentration [1]: 6 µM | Maximal concentration detected in humans, fold lower than in mice [2]: 5 to 10 fold
